The NIST ThermoML archive (doi:10.1016/j.tca.2013.08.002)

Assay: mn = molality of the nth substance listed, in mol/kg
Conditions: 101 kPa, Liquid; for speed of sound: Frequency=1.999 MHz, Sing-around technique in a fixed-path interferometer; for mass density: Vibrating tube method

C[N+](C)(C)CC(=O)[O-] [(trimethylammonio)acetate] + O
Conditions	mass density [kg/m3]	speed of sound [m/s]
288.15 K, m1 = 0.0482	1000.1	1471.1
288.15 K, m1 = 0.1063	1001.2	1477.4
288.15 K, m1 = 0.5027	1008.5	1517.6
288.15 K, m1 = 1.002	1016.8	1562.8
288.15 K, m1 = 1.504	1024.3	1599.7
288.15 K, m1 = 2.005	1030.9	1628.1
288.15 K, m1 = 2.519	1036.6	1648.9
288.15 K, m1 = 3.008	1041.8	1658.3
293.15 K, m1 = 0.0482	999.1	1487.7
293.15 K, m1 = 0.1063	1000.2	1493.8
293.15 K, m1 = 0.5027	1007.2	1535.4
293.15 K, m1 = 1.002	1015.1	1580.7
293.15 K, m1 = 1.504	1022.1	1619.5
293.15 K, m1 = 2.005	1028.1	1649.8
293.15 K, m1 = 2.519	1033.6	1670.4
293.15 K, m1 = 3.008	1038.5	1680.1
298.15 K, m1 = 0.0482	997.9	1501.6
298.15 K, m1 = 0.1063	998.9	1507.6
298.15 K, m1 = 0.5027	1005.6	1547.2
298.15 K, m1 = 1.002	1013.1	1593.1
298.15 K, m1 = 1.504	1019.9	1630
298.15 K, m1 = 2.005	1025.8	1656.8
298.15 K, m1 = 2.519	1031	1674.5
298.15 K, m1 = 3.008	1035.4	1698.9
303.15 K, m1 = 0.0482	996.6	1514.1
303.15 K, m1 = 0.1063	997.6	1520
303.15 K, m1 = 0.5027	1004.2	1558.6
303.15 K, m1 = 1.002	1011.6	1602.3
303.15 K, m1 = 1.504	1018	1639.6
303.15 K, m1 = 2.005	1023.5	1669.8
303.15 K, m1 = 2.519	1028.4	1689.7
303.15 K, m1 = 3.008	1032.8	1715.2
308.15 K, m1 = 0.0482	994.9	1524.2
308.15 K, m1 = 0.1063	995.9	1529.9
308.15 K, m1 = 0.5027	1002.5	1567.5
308.15 K, m1 = 1.002	1009.9	1610.2
308.15 K, m1 = 1.504	1016.4	1648.1
308.15 K, m1 = 2.005	1022	1679.8
308.15 K, m1 = 2.519	1027.1	1700
308.15 K, m1 = 3.008	1031.2	1726.5
313.15 K, m1 = 0.0482	993.1	1533.4
313.15 K, m1 = 0.1063	994.1	1538.8
313.15 K, m1 = 0.5027	1000.7	1574.2
313.15 K, m1 = 1.002	1007.9	1615.7
313.15 K, m1 = 1.504	1014.4	1652.3
313.15 K, m1 = 2.005	1019.9	1682.8
313.15 K, m1 = 2.519	1025	1705.9
313.15 K, m1 = 3.008	1029.1	1737.1
318.15 K, m1 = 0.0482	991.1	1540.8
318.15 K, m1 = 0.1063	992.1	1546
318.15 K, m1 = 0.5027	998.7	1580.3
318.15 K, m1 = 1.002	1006	1620.9
318.15 K, m1 = 1.504	1012.4	1656.7
318.15 K, m1 = 2.005	1018	1688.3
318.15 K, m1 = 2.519	1022.8	1713.8
318.15 K, m1 = 3.008	1027.3	1743.7
